ChEMBL document CHEMBL1201862, “PubChem BioAssay data set” (2004)
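Cultured in 96-well plates, cells were exposed to test compound for 48 hours across five concentrations. GI50 marks 50% less growth.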 Active and inactive are the calls of the source. No stated cut-off is given here; in the data, active = GI50 up to about 1.1 µM and inactive = higher.

Experiments:
Test in all cases: NCI tumour cell line growth inhibition, 48 h
SF-268 = system: SF-268
786-0 = system: 786-0
OVCAR-4 = system: OVCAR-4
RXF 393 = system: RXF 393
U-251 = system: U-251
ACHN = system: ACHN
SK-OV-3 = system: SK-OV-3
SK-MEL-28 = system: SK-MEL-28
SW-620 = system: SW-620
BT-549 = system: BT-549
EKVX = system: EKVX
MDA-MB-435 = system: MDA-MB-435
DU-145 = system: DU-145
M14 = system: M14
CCRF-CEM = system: CCRF-CEM
A549 = system: A549
SK-MEL-2 = system: SK-MEL-2
PC-3 = system: PC-3

SMILES	GI50 (SF-268)	GI50 (786-0)	GI50 (OVCAR-4)	GI50 (RXF 393)	GI50 (U-251)	GI50 (ACHN)	GI50 (SK-OV-3)	GI50 (SK-MEL-28)	GI50 (SW-620)	GI50 (BT-549)	GI50 (EKVX)	GI50 (MDA-MB-435)	GI50 (DU-145)	GI50 (M14)	GI50 (CCRF-CEM)	GI50 (A549)	GI50 (SK-MEL-2)	GI50 (PC-3)
Cc1cc2nc3c(C#N)c4c(c(Nc5ccc(Cl)cc5)n3c2cc1C)CCC4	18.4 µM (inactive)	15.9 µM (inactive)	32.5 µM (inactive)	17.3 µM (inactive)	18.9 µM (inactive)	20.6 µM (inactive)	> 100 µM (inactive)	22.1 µM (inactive)	17.9 µM (inactive)	23.8 µM (inactive)	33.8 µM (inactive)	33.5 µM (inactive)	26.5 µM (inactive)	–	–	–	–	–
O=[N+]([O-])C1C2C=CC(C2)[C@H]1c1ccc(Cl)cc1Cl (stereo partly drawn)	45.1 µM (inactive)	54.3 µM (inactive)	> 10 µM (inactive)	20.9 µM (inactive)	35.3 µM (inactive)	33 µM (inactive)	–	19.7 µM (inactive)	74.5 µM (inactive)	–	–	–	–	> 10 µM (inactive)	39.4 µM (inactive)	35.2 µM (inactive)	44.9 µM (inactive)	–
Cc1ccc2c(c1)C(=O)C1(C2)Cc2ccc(C)cc2C1=O	> 100 µM (inactive)	> 100 µM (inactive)	> 100 µM (inactive)	> 100 µM (inactive)	71.8 µM (inactive)	> 100 µM (inactive)	> 100 µM (inactive)	–	> 100 µM (inactive)	–	> 100 µM (inactive)	> 100 µM (inactive)	> 100 µM (inactive)	> 100 µM (inactive)	> 100 µM (inactive)	> 100 µM (inactive)	87.3 µM (inactive)	> 100 µM (inactive)
C/C(Cl)=N\OC(=O)Nc1ccc(C)cc1	15.8 µM (inactive)	18.7 µM (inactive)	18.5 µM (inactive)	–	16.3 µM (inactive)	15.7 µM (inactive)	17.3 µM (inactive)	14.5 µM (inactive)	16.8 µM (inactive)	–	18.3 µM (inactive)	–	> 10 µM (inactive)	17.2 µM (inactive)	2.04 µM (inactive)	18.2 µM (inactive)	18.2 µM (inactive)	15.8 µM (inactive)
Cc1nnc2nc(-c3ccc(Cl)cc3Cl)cc(-c3ccc(Cl)cc3)n12	83.9 µM (inactive)	> 100 µM (inactive)	23.3 µM (inactive)	–	> 100 µM (inactive)	> 100 µM (inactive)	> 100 µM (inactive)	21 µM (inactive)	> 100 µM (inactive)	> 100 µM (inactive)	–	> 100 µM (inactive)	> 100 µM (inactive)	> 100 µM (inactive)	> 100 µM (inactive)	76.4 µM (inactive)	–	57.8 µM (inactive)
CC1(C)NC(C)(C)/C(=N\O)C(=NO)/C1=N/O	> 100 µM (inactive)	> 100 µM (inactive)	> 100 µM (inactive)	> 100 µM (inactive)	> 100 µM (inactive)	> 100 µM (inactive)	> 100 µM (inactive)	> 100 µM (inactive)	> 100 µM (inactive)	–	> 100 µM (inactive)	> 100 µM (inactive)	> 100 µM (inactive)	> 100 µM (inactive)	> 100 µM (inactive)	> 100 µM (inactive)	> 100 µM (inactive)	> 100 µM (inactive)
CCOC(=O)c1c(-c2ccc(OC)cc2)c(C#N)c(=S)n(C2OC(COC(C)=O)C(OC(C)=O)C(OC(C)=O)C2OC(C)=O)c1C (stereo not drawn)	> 100 µM (inactive)	> 100 µM (inactive)	20.9 µM (inactive)	> 100 µM (inactive)	> 100 µM (inactive)	58.2 µM (inactive)	> 100 µM (inactive)	> 100 µM (inactive)	> 100 µM (inactive)	–	78.2 µM (inactive)	> 100 µM (inactive)	> 100 µM (inactive)	> 100 µM (inactive)	61.9 µM (inactive)	> 100 µM (inactive)	–	30.8 µM (inactive)
CCOP(C)(=O)C(Cc1c[nH]c2ccccc12)C(=O)O (stereo not drawn)	> 100 µM (inactive)	> 100 µM (inactive)	–	–	> 100 µM (inactive)	> 100 µM (inactive)	> 100 µM (inactive)	> 100 µM (inactive)	> 100 µM (inactive)	> 100 µM (inactive)	> 100 µM (inactive)	> 100 µM (inactive)	> 100 µM (inactive)	> 100 µM (inactive)	> 100 µM (inactive)	> 100 µM (inactive)	> 100 µM (inactive)	> 100 µM (inactive)
COC(=O)/C=C/c1ccc2c(c1)CC1(Cc3ccccc3C1)C2	–	> 100 µM (inactive)	> 100 µM (inactive)	16.5 µM (inactive)	> 100 µM (inactive)	> 100 µM (inactive)	> 100 µM (inactive)	–	–	–	23.6 µM (inactive)	41.3 µM (inactive)	–	> 100 µM (inactive)	28 µM (inactive)	0.0463 µM (active)	> 100 µM (inactive)	> 100 µM (inactive)
